Experimental data from ChEMBL document CHEMBL5050845, “Enhancers of neurolysin activity” (2020).
Each block holds one molecule with its values, some of them ahead of it. The source made the active and inactive calls. The rule behind the calls is not given here. Peptide text beside a SMILES is read from it. * marks the point of attachment. NHPhenethyl = c1ccc(CCN*)cc1; Boc = CC(C)(C)OC(=O)*

Key:
Rattus norvegicus [1] = organism: Rattus norvegicus; assay: Positive allosteric modulation of recombinant N-terminal poly-His tagged rat neurolysin using Mca-Pro-Leu- Gly-Pro-D-Lys(DNP)-OH as substrate and measured by fluorescence based assay
Rattus norvegicus [2] = organism: Rattus norvegicus; assay: Positive allosteric modulation of recombinant N-terminal poly-His tagged rat neurolysin using Mca-Pro-Leu- Gly-Pro-D-Lys(DNP)-OH as substrate assessed as Amax and measured by fluorescence based assay relative to control
[3] = Inhibition of recombinant N-terminal poly-His tagged rat neurolysin using Mca-Pro-Leu- Gly-Pro-D-Lys(DNP)-OH as substrate in presence of 100 uM NSC 374121 and measured by fluorescence based assay relative to control
[4] = Inhibition of recombinant N-terminal poly-His tagged rat neurolysin using Mca-Pro-Leu- Gly-Pro-D-Lys(DNP)-OH as substrate in presence of 100 uM NSC 523374 and measured by fluorescence based assay relative to control
Rattus norvegicus [5] = organism: Rattus norvegicus; assay: Positive allosteric modulation of catalytic activity of recombinant N-terminal poly-His tagged rat neurolysin using Mca-Pro-Leu- Gly-Pro-D-Lys(DNP)-OH as substrate and measured by fluorescence based assay relative to control; conditions: filed as positive allosteric modulator
[6] = target: Angiotensin-converting enzyme 2 (Homo sapiens) (UniProt Q9BYF1); assay: Inhibition of recombinant N-terminal Met and His-tagged human ACE2 at 300 uM using Mca-Ala-Pro-Lys-(Dnp)-OH as substrate and measured by fluorescence based assay relative to control
Chain of Angiotensin-converting enzyme 2 (Homo sapiens) (Q9BYF1 18-805 limits assumed): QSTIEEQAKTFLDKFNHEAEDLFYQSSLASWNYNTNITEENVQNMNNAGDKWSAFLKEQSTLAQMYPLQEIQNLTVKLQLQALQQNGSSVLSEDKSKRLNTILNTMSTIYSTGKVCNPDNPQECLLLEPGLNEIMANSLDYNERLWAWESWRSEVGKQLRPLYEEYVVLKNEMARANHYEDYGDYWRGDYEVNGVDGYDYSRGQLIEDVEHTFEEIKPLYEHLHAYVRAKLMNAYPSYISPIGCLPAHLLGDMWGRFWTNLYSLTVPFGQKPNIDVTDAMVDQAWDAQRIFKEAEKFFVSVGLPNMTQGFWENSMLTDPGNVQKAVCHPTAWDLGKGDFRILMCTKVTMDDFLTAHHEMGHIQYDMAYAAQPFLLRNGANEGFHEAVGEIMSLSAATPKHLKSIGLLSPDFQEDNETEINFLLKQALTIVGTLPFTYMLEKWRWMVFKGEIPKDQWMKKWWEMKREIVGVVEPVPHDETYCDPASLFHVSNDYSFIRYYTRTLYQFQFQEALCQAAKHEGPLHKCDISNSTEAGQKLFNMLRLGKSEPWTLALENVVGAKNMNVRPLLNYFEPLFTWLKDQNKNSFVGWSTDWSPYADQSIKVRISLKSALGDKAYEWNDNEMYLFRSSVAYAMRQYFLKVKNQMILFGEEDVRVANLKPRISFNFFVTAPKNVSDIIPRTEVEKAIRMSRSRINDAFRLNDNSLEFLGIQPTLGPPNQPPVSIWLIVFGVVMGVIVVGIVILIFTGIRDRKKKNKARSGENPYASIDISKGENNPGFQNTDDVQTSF

Rattus norvegicus [7] = organism: Rattus norvegicus; assay: Positive allosteric modulation of catalytic activity of recombinant N-terminal poly-His tagged rat neurolysin using Mca-Pro-Leu- Gly-Pro-D-Lys(DNP)-OH as substrate in presence of 1 uM dynoprhin A (1 to 13) and measured by fluorescence based assay relative to control; conditions: filed as positive allosteric modulator
Homo sapiens [8] = organism: Homo sapiens; assay: Positive allosteric modulation of recombinant N-terminal Met and His-tagged human neurolysin using Mca-Pro-Leu- Gly-Pro-D-Lys(DNP)-OH as substrate and measured by fluorescence based assay relative to control; conditions: filed as positive allosteric modulator
Homo sapiens [9] = organism: Homo sapiens; assay: Inhibition of recombinant N-terminal Met and His-tagged human Thimet oligopeptidase at 300 uM using Mca-Pro-Leu-Gly-Pro-D-Lys(DNP)-OH as substrate and measured by fluorescence based assay relative to control
[10] = target: Angiotensin-converting enzyme (Homo sapiens) (UniProt P12821); assay: Inhibition of recombinant C-terminal 10His-tagged human ACE at 300 uM using Mca-Arg-Pro-Pro-Gly-Phe-Ser-Ala-Phe-Lys(Dnp)-OH as substrate and measured by fluorescence based assay relative to control
Chain of Angiotensin-converting enzyme (Homo sapiens) (P12821 whole entry): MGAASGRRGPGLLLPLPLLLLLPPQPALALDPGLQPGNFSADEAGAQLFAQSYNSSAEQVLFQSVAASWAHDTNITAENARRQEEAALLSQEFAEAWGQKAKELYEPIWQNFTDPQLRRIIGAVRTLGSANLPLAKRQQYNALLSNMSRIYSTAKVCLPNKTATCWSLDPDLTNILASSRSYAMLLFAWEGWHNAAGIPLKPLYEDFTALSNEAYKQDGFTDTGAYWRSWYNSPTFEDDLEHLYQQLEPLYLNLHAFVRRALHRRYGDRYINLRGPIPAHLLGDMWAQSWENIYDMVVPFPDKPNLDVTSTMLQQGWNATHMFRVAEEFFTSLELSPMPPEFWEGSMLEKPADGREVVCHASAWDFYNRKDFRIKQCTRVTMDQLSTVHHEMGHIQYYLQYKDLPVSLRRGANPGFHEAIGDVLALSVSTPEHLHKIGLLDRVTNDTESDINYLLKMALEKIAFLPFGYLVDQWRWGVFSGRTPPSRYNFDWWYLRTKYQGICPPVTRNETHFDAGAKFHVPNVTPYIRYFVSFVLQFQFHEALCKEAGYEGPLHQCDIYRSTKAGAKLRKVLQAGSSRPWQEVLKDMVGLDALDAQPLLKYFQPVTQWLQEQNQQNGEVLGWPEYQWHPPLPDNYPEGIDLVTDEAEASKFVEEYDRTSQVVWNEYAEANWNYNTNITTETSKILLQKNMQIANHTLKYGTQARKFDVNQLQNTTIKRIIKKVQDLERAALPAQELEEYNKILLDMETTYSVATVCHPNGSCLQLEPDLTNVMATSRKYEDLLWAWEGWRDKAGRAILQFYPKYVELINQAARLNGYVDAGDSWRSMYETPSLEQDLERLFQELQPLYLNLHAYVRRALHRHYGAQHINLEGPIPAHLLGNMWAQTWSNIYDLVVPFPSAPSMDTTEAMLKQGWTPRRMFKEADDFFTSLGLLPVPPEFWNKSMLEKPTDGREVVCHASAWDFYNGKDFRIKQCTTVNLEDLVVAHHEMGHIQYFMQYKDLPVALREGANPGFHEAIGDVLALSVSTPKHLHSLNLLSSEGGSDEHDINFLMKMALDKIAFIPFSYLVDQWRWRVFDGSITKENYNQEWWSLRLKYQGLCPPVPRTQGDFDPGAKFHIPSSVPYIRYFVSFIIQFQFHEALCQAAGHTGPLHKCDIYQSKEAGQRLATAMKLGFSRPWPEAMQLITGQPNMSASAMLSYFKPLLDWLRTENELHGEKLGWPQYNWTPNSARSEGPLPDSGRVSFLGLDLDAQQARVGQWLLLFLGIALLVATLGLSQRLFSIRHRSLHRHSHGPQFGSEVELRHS

Mus musculus = organism: Mus musculus; assay: Positive allosteric modulation of neurolysin in mouse brain using Mca-Pro-Leu- Gly-Pro-D-Lys(DNP)-OH as substrate and measured by fluorescence based assay relative to control; format: tissue-based; conditions: filed as positive allosteric modulator
Rattus norvegicus [11] = organism: Rattus norvegicus; assay: Positive allosteric modulation of catalytic activity of recombinant N-terminal poly-His tagged rat neurolysin at 40 uM assessed as Vmax as fluorescent unit/ng protein and measured fluorescence assay; conditions: filed as positive allosteric modulator
Rattus norvegicus [12] = organism: Rattus norvegicus; assay: Positive allosteric modulation of catalytic activity of recombinant N-terminal poly-His tagged rat neurolysin at 100 uM assessed as Vmax as fluorescent unit/ng protein measured fluorescence assay; conditions: filed as positive allosteric modulator
Rattus norvegicus [13] = organism: Rattus norvegicus; assay: Positive allosteric modulation of catalytic activity of recombinant N-terminal poly-His tagged rat neurolysin at 40 uM assessed as Km measured fluorescence assay; conditions: filed as positive allosteric modulator
Rattus norvegicus [14] = organism: Rattus norvegicus; assay: Positive allosteric modulation of catalytic activity of recombinant N-terminal poly-His tagged rat neurolysin assessed as effect on fluorescence signal of Mca-Pro-Leu-OH and measured fluorescence assay
Rattus norvegicus [15] = organism: Rattus norvegicus; assay: Positive allosteric modulation of catalytic activity of recombinant N-terminal poly-His tagged rat neurolysin at 100 uM assessed as Km measured fluorescence assay; conditions: filed as positive allosteric modulator
[16] = target: Neprilysin (Homo sapiens) (UniProt P08473); assay: Inhibition of recombinant N-terminal 6His-tagged human neprilysin expressed in CHO cells at 300 uM using Mca-Arg-Pro-Pro-Gly-Phe-Ser-Ala-Phe-Lys(Dnp)-OH as substrate and measured by fluorescence based assay relative to control
Chain of Neprilysin (Homo sapiens) (P08473 whole entry): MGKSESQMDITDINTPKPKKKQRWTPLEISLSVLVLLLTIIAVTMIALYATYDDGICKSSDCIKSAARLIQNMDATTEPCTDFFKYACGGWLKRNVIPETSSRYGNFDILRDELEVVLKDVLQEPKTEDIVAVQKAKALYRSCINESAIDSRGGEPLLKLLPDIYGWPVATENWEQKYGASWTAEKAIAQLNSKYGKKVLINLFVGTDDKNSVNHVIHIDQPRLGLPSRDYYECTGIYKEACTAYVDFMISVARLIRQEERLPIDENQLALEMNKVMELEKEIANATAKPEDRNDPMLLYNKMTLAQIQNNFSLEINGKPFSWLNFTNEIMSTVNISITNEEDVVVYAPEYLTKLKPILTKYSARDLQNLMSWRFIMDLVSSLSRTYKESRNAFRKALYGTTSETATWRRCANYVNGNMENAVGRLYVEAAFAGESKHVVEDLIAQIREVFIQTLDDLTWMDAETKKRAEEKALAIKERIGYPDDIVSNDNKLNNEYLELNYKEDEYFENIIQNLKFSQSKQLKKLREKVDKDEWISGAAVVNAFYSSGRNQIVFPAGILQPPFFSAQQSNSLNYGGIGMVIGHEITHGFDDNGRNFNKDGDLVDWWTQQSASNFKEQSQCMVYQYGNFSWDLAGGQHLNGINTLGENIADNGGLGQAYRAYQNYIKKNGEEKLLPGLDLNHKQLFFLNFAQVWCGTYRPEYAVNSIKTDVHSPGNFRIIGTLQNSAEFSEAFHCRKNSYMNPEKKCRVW

Rattus norvegicus [17] = organism: Rattus norvegicus; assay: Positive allosteric modulation of recombinant N-terminal poly-His tagged rat neurolysin at 100 uM assessed fold increase in formation of angiotensin (1 to 7) from angiotensin I and measured by mass spectrometry analysis; conditions: filed as positive allosteric modulator
Rattus norvegicus [18] = organism: Rattus norvegicus; assay: Positive allosteric modulation of recombinant N-terminal poly-His tagged rat neurolysin at 100 uM assessed fold increase in formation of neurotensin (1 to 10) from neurotensin and measured by mass spectrometry analysis; conditions: filed as positive allosteric modulator
Rattus norvegicus [19] = organism: Rattus norvegicus; assay: Positive allosteric modulation of recombinant N-terminal poly-His tagged rat neurolysin at 100 uM assessed fold increase in formation of bradykinin (1 to 5) from bradykinin and measured by mass spectrometry analysis; conditions: filed as positive allosteric modulator
[20] = filed as positive allosteric modulator

A50 (Rattus norvegicus [1]; [20]): 130 µM
Emax (Rattus norvegicus [2]; [20]): 573%
Compound: N[C@@H](Cc1cnc[nH]1)C(=O)N[C@@H](Cc1ccccc1)C(=O)O (H-His-Phe-OH)

Compound: N[C@@H](Cc1c[nH]cn1)C(=O)NCc1ccc(F)cc1
Emax (Rattus norvegicus [2]; [20]): 252%

Compound: CC[C@H](C)[C@H](NC(=O)[C@H](CCCNC(=N)N)NC(=O)[C@H](CCCNC(=N)N)NC(=O)[C@H](CC(C)C)NC(=O)[C@H](Cc1ccccc1)NC(=O)CNC(=O)CNC(=O)[C@@H](N)Cc1ccc(O)cc1)C(=O)N[C@@H](CCCNC(=N)N)C(=O)N1CCC[C@H]1C(=O)N[C@@H](CCCCN)C(=O)N[C@@H](CC(C)C)C(=O)N[C@@H](CCCCN)C(=O)O [ANALOG OF DYNORPHIN A]
Ki [3]: 700 nM
Ki [4]: 600 nM

A50 (Rattus norvegicus [1]): inactive
Emax (Rattus norvegicus [2]): inactive
Compound: CC(C)(C)OC(=O)N[C@@H](Cc1c[nH]cn1)C(=O)NCCc1cc2ccccc2[nH]1

A50 (Rattus norvegicus [1]): inactive
Emax (Rattus norvegicus [2]): inactive
Compound: CC(C)(C)OC(=O)N[C@@H](Cc1c[nH]cn1)C(=O)N[C@@H](Cc1ccccc1)C(=O)O (Boc-His-Phe-OH)

Compound: N[C@@H](Cc1c[nH]cn1)C(=O)NCc1cccc2ccccc12
Emax (Rattus norvegicus [2]; [20]): 264%

Emax (Rattus norvegicus [2]; [20]): 494%
Compound: N[C@@H](Cc1c[nH]cn1)C(=O)NCc1cccc(C(F)(F)F)c1

Compound: NC(Cc1c[nH]cn1)C(=O)NC(Cc1c[nH]cn1)C(=O)O (stereo not drawn)
Emax (Rattus norvegicus [5]): 203%
inhibition [6]: 10.9%
Emax (Rattus norvegicus [7]): 198%
Emax (Homo sapiens [8]): 214%
inhibition (Homo sapiens [9]): 15.6%
inhibition [10]: 12.2%
Emax (Mus musculus): 258%
Vmax (Rattus norvegicus [11]): 112 min⁻¹
Vmax (Rattus norvegicus [12]): 148 min⁻¹
Km (Rattus norvegicus [13]): 8 µM
Activity (Rattus norvegicus [14]): inactive
Km (Rattus norvegicus [15]): 6.1 µM
inhibition [16]: 1.6%

A50 (Rattus norvegicus [1]): inactive
Emax (Rattus norvegicus [2]): inactive
Compound: N[C@@H](Cc1ccccn1)C(=O)NCCc1ccccc1

Compound: COc1ccc(CNC(=O)[C@H](N)Cc2cnc[nH]2)cc1
Emax (Rattus norvegicus [2]; [20]): 704%

Compound: COc1ccc(CCNC(=O)[C@@H](N)Cc2c[nH]cn2)cc1
Emax (Rattus norvegicus [2]; [20]): 544%

Compound: NC(Cc1c[nH]cn1)C(=O)NCCc1cc2ccccc2[nH]1 (racemic)
Emax (Rattus norvegicus [2]; [20]): 311%

Emax (Rattus norvegicus [2]; [20]): 152%
Compound: N[C@@H](Cc1c[nH]cn1)C(=O)NCc1ccccc1

Emax (Rattus norvegicus [2]; [20]): 184%
Compound: N[C@H](Cc1cnc[nH]1)C(=O)NCc1cccc(C(F)(F)F)c1

A50 (Rattus norvegicus [1]; [20]): 5.4 µM
Emax (Rattus norvegicus [2]; [20]): 178%
Compound: N[C@@H](Cc1c[nH]cn1)C(=O)N[C@@H](Cc1ccccc1)C(=O)NCCc1ccccc1 (H-His-Phe-NHPhenethyl)

A50 (Rattus norvegicus [1]; [20]): 12.3 µM
Emax (Rattus norvegicus [2]; [20]): 262%
Compound: N[C@@H](Cc1c[nH]cn1)C(=O)NCc1ccc2ccccc2c1

Compound: COc1cccc(CCNC(=O)[C@H](N)Cc2c[nH]cn2)c1
Emax (Rattus norvegicus [2]; [20]): 255%

Compound: N[C@H](Cc1c[nH]cn1)C(=O)NCCc1cc2ccccc2[nH]1
Emax (Rattus norvegicus [2]; [20]): 132%

Compound: COc1cccc(CNC(=O)[C@H](N)Cc2cnc[nH]2)c1
Emax (Rattus norvegicus [2]; [20]): 477%

Emax (Rattus norvegicus [5]): 235%
inhibition [6]: 13.4%
Emax (Rattus norvegicus [7]): 238%
Emax (Homo sapiens [8]): 204%
inhibition (Homo sapiens [9]): 25.9%
inhibition [10]: 22.6%
fold change (FC) (Rattus norvegicus [17]): 6
Vmax (Rattus norvegicus [11]): 124 min⁻¹
Vmax (Rattus norvegicus [12]): 165 min⁻¹
Km (Rattus norvegicus [13]): 7.9 µM
Activity (Rattus norvegicus [14]): inactive
Km (Rattus norvegicus [15]): 6.4 µM
inhibition [16]: 2.9%
fold change (FC) (Rattus norvegicus [18]): 3
fold change (FC) (Rattus norvegicus [19]): 2
Compound: NC(Cc1c[nH]cn1)C(=O)NC(Cc1ccc(O)cc1)C(=O)O (stereo not drawn) (H-His-Tyr-OH; configuration not given here)
Emax (Mus musculus): 190%

Compound: N[C@H](Cc1c[nH]cn1)C(=O)NCc1cccc2ccccc12
Emax (Rattus norvegicus [2]; [20]): 343%

Compound: N[C@@H](Cc1c[nH]cn1)C(=O)NCCc1cc2ccccc2[nH]1
Emax (Rattus norvegicus [2]; [20]): 259%

A50 (Rattus norvegicus [1]): inactive
Emax (Rattus norvegicus [2]): inactive
Compound: CC(C)(C)OC(=O)N[C@@H](Cc1c[nH]cn1)C(=O)NCCc1ccccc1

Emax (Rattus norvegicus [2]; [20]): 438%
Compound: N[C@@H](Cc1c[nH]cn1)C(=O)NCCc1ccc(C(F)(F)F)cc1

Compound: COc1ccc(CNC(=O)[C@@H](N)Cc2c[nH]cn2)cc1
Emax (Rattus norvegicus [2]; [20]): 429%

Emax (Rattus norvegicus [2]; [20]): 325%
Compound: COc1ccccc1CNC(=O)[C@H](N)Cc1c[nH]cn1

Emax (Rattus norvegicus [2]; [20]): 340%
Compound: N[C@H](Cc1c[nH]cn1)C(=O)NCCc1ccc2ccccc2c1

Emax (Rattus norvegicus [2]; [20]): 334%
Compound: N[C@@H](Cc1c[nH]cn1)C(=O)NCc1ccccc1C(F)(F)F

A50 (Rattus norvegicus [1]): inactive
Emax (Rattus norvegicus [2]): inactive
Compound: O=C1NC(Cc2c[nH]cn2)C(=O)N2CCCC12 (stereo not drawn)

Emax (Rattus norvegicus [2]; [20]): 467%
Compound: N[C@@H](Cc1cnc[nH]1)C(=O)N[C@@H](Cc1ccc(O)cc1)C(=O)O (H-His-Tyr-OH)

Emax (Rattus norvegicus [2]; [20]): 173%
Compound: N[C@@H](Cc1c[nH]cn1)C(=O)N1CCCC1

Emax (Rattus norvegicus [2]; [20]): 643%
Compound: N[C@H](Cc1c[nH]cn1)C(=O)NCCc1ccc(C(F)(F)F)cc1

Emax (Rattus norvegicus [2]; [20]): 440%
Compound: N[C@@H](Cc1c[nH]cn1)C(=O)N[C@H](Cc1cc2ccccc2[nH]1)C(=O)O

Emax (Rattus norvegicus [2]; [20]): 396%
Compound: N[C@H](Cc1c[nH]cn1)C(=O)NCCc1ccccc1C(F)(F)F

Compound: N[C@@H](Cc1c[nH]cn1)C(=O)NCCc1ccccc1
Emax (Rattus norvegicus [2]; [20]): 231%

Emax (Rattus norvegicus [2]; [20]): 305%
Compound: N[C@@H](Cc1c[nH]cn1)C(=O)NCc1ccc(C(F)(F)F)cc1

A50 (Rattus norvegicus [1]; [20]): 7.74 µM
Emax (Rattus norvegicus [2]; [20]): 140%
Compound: N[C@@H](Cc1c[nH]cn1)C(=O)Nc1ccccc1

Compound: N[C@H](Cc1c[nH]cn1)C(=O)NCCc1ccccc1
Emax (Rattus norvegicus [2]; [20]): 407%

A50 (Rattus norvegicus [1]): inactive
Emax (Rattus norvegicus [2]): inactive
Compound: CC(C)(C)OC(=O)N[C@@H](Cc1c[nH]cn1)C(=O)NCCc1c[nH]c2ccccc12

Emax (Rattus norvegicus [2]; [20]): 599%
Compound: N[C@H](Cc1c[nH]cn1)C(=O)NCc1ccc(C(F)(F)F)cc1

Emax (Rattus norvegicus [2]; [20]): 324%
Compound: N[C@@H](Cc1c[nH]cn1)C(=O)NCCc1ccc2ccccc2c1

Compound: N[C@@H](Cc1c[nH]cn1)C(=O)NCCc1ccc(F)cc1
A50 (Rattus norvegicus [1]; [20]): 27.9 µM
Emax (Rattus norvegicus [2]; [20]): 323%

Compound: O=C(CCc1cnc[nH]1)NCCc1c[nH]c2ccccc12
A50 (Rattus norvegicus [1]): inactive
Emax (Rattus norvegicus [2]): inactive
